Measured values reported in paper PMC4619319, “A potent anti-inflammatory peptide from the salivary glands of horsefly” (Parasites & Vectors, 2015).

Tests used:
P-p65 = test: Western blot, LPS-induced P-p65 in peritoneal macrophages; format: cell-based, mouse; conditions: 20 μg/mL peptide, 100 ng/mL LPS, 30 min, band density ratio to β-actin
Description: Cells were treated with different concentrations of cecropin-TY1 (0, 5, 10, and 20 μg/mL) in the presence or absence of 100 ng/mL LPS (from E. coli 0111:B4, Sigma-Aldrich, USA). After 30-min incubation, cells were washed twice with ice-cold PBS and lysed with RIPA lysis buffer (Beyotime, China) on ice for 30 min according to our previous method. Protein concentration was quantified by BCA Protein Assay Kit (Thermo, Germany). About 40 μg protein was separated on a 10 % SDS-PAGE gel and transferred to a polyvinylidene difluoride membrane. The membrane was blocked by incubating with 5 % BSA (BD, USA) dissolved in Tris-buffered solution Tween-20 (TBST, 2.42 g/L Trisbase, 8 g/L NaCl, 0.1 % Tween 20, pH 7.6) for 2 h at room temperature. The membrane was then incubated with primary antibodies against ERK, phospho-ERK, p38, phospho-p38, JNK, phospho-JNK, phospho-IκBα, NF-κB p65 and phospho-NF-κB p65 (1:2000, Cell Signaling Technology, USA) and GAPDH/β-actin (1:5000, Santa Cruz Biotechnology, USA) overnight at 4 °C, respectively. After incubation, the immunoblot was washed three times with TBST for 5 min each time, and incubated with secondary antibody (1:5000, Cell Signaling Technology, USA) at room temperature for 1 h. Signals were measured by enhanced chemiluminescence kit in a dark room after washing three times with TBST for 10 min each time (TIANGEN, China).

iNOS transcription = test: LPS-stimulated iNOS mRNA transcription in peritoneal macrophages (qPCR); format: cell-based, mouse; conditions: 100 ng/mL LPS, 6 h
Description: qPCR was performed using SYBR green master mix (Takara, Japan) on a Realplex Mastercycler real-time PCR system (Eppendorf, Germany) according to the manufacturer’s instruction. The gene transcription levels were normalized to GAPDH or β-actinas as illustrated in figure legends and calculated by ΔΔCt method. The accuracy of qPCR results were checked by melting curve analysis. qPCR primers were listed in Additional file 1: Table S1.
Cells were incubated with peptides (0, 5, 10, and 20 μg/mL) in the presence or absence of LPS (100 ng/mL, from Escherichia coli 0111:B4, Sigma-Aldrich, USA). After 6-h incubation, cells in one plate were washed twice with ice-cold PBS and lysed by Trizol reagent (Life Tech, USA) for total RNA extraction. PrimeScript® Reverse Transcriptase Kit (Takara, Japan) was used to synthesize cDNA for qPCR to examine the transcription levels of inducible nitric oxide synthase (iNOS), which is necessary for NO production. After 24-h incubation, culture medium of each wells of another plate was harvested for nitrite detection, which indirectly reflected the NO production. Nitrite accumulation levels were determined by NO detection kit (Beyotime, China) following the kit instruction.

With “GWLKKIGKKIERVGQNVRNAAISTLPIAQGAAGVAGALN-NH2 [cecropin-TY1, cecropin antimicrobial peptide from salivary glands of horsefly Tabanus yao, 39 residues, C-terminally amidated, synthesized]” the “inhibition of LPS-induced P-p65 expression” value (P-p65) was 55.9%, the “attenuation of LPS-activated iNOS transcription” value (“attenuation” for short) (iNOS transcription; 5 μg/mL peptide) was 58.8% and the “attenuation” value (iNOS transcription; 10 μg/mL peptide) was 68.7%. For the same substance, the “attenuation” value (iNOS transcription; 20 μg/mL peptide) was 84.2%.
